The target of this assay is USP7 (Homo sapiens, UniProt Q93009). In words: USP7 inhibitory potency (Table 1). Format: biochemical.

The source of these data is patent US20210317134A1, “UBIQUITIN-SPECIFIC-PROCESSING PROTEASE 7 (USP7) MODULATORS AND USES THEREOF” (RAPT THERAPEUTICS, INC., priority 2019, published 2021).

Chain of USP7 (Q93009 whole entry): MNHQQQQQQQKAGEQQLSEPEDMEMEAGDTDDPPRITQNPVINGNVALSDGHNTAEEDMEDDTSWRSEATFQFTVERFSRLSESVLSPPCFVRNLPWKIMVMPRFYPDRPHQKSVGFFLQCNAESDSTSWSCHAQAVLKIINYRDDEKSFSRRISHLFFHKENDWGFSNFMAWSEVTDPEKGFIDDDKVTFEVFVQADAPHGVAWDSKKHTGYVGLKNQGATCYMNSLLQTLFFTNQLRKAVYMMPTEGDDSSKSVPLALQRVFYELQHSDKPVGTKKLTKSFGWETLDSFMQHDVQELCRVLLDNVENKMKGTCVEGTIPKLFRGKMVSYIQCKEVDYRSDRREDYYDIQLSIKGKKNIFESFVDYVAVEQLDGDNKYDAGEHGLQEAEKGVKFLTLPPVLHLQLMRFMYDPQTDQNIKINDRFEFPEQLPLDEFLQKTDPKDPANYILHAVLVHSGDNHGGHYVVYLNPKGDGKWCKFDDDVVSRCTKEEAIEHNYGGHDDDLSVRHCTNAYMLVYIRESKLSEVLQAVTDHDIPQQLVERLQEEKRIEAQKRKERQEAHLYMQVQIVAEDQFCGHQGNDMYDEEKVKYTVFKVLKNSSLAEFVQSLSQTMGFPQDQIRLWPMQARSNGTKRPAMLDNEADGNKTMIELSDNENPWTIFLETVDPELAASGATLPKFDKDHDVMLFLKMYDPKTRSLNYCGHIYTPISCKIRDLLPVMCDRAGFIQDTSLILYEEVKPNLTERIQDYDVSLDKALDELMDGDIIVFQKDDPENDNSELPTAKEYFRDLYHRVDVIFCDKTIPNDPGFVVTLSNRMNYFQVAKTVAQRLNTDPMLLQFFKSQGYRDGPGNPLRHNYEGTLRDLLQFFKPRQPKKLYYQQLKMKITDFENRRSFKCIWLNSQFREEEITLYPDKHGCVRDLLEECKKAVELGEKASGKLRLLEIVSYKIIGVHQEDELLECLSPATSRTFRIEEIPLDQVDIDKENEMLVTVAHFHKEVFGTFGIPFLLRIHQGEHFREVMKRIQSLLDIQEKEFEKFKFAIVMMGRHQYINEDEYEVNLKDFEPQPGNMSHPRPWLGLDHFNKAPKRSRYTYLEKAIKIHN

As a reminder, the IC50 is the concentration at which inhibition is half-maximal. In turn, `COc1ccc2nccc(-c3cc(Cl)cc4c3O[C@@H](c3onc5c3CNCC5)C4)c2c1` [(R)-3-(5-chloro-7-(6-methoxyquinolin-4-yl)-2,3-dihydrobenzofuran-2-yl)-4,5,6,7-tetrahydroisoxazolo[4,3-c]pyridine] displayed an IC50 of 10 to 30 µM. Consider `O=C([C@H]1Cc2cc(Cl)cc(-c3ccnc4cc(CO)sc34)c2O1)N1CC[C@H](O)C1` [((R)-5-chloro-7-(2-(hydroxymethyl)thieno[3,2-b]pyridin-7-yl)-2,3-dihydrobenzofuran-2-yl)((S)-3-hydroxypyrrolidin-1-yl)methanone], for which the IC50 lay within 10 to 30 µM.

In the case of `CS(=O)(=O)NCc1ccc2c(-c3cc(Cl)cc4c3O[C@@H](c3onc5c3CNCC5)C4)ccnc2c1` [(R)-N-((4-(5-chloro-2-(4,5,6,7-tetrahydroisoxazolo[4,3-c]pyridin-3-yl)-2,3-dihydrobenzofuran-7-yl)quinolin-7-yl)methyl)methanesulfonamide], the IC50 lay in the range of 1 to 10 µM. The value for `CCC(O)c1cc2nccc(-c3cc(Cl)cc4c3O[C@@H](c3onc5c3CN(C)CC5)C4)c2s1` (stereo partly drawn) [drawing 1521, 1-(7-((R)-5-chloro-2-(5-methyl-4,5,6,7-tetrahydroisoxazolo[4,3-c]pyridin-3-yl)-2,3-dihydrobenzofuran-7-yl)thieno[3,2-b]pyridin-2-yl)propan-1-ol] was less than 1 µM; that for `NC(=O)C1Cc2nccc(-c3cc(Cl)cc4c3O[C@@H](c3onc5c3CNCC5)C4)c2C1` (stereo partly drawn) [4-((R)-5-chloro-2-(4,5,6,7-tetrahydroisoxazolo[4,3-c]pyridin-3-yl)-2,3-dihydrobenzofuran-7-yl)-6,7-dihydro-5H-cyclopenta[b]pyridine-6-carboxamide] was 1 to 10 µM; that for `OCc1cc2nccc(-c3cc(Cl)cc4c3OC(c3onc5c3CNCC5)C4)n2n1` (centres unmarked) [(7-(5-chloro-2-(4,5,6,7-tetrahydroisoxazolo[4,3-c]pyridin-3-yl)-2,3-dihydrobenzofuran-7-yl)pyrazolo[1,5-a]pyrimidin-2-yl)methanol] was 1 to 10 µM. `N#Cc1ccc2c(-c3cc(Cl)cc4c3OC(C(=O)N3CCNCC3)C4)ccnc2c1` (centres unmarked) [4-(5-chloro-2-(piperazine-1-carbonyl)-2,3-dihydrobenzofuran-7-yl)quinoline-7-carbonitrile] displayed an IC50 of less than 1 µM.

`NC(=O)c1cc2nccc(-c3cc(Cl)cc4c3OC(C(=O)N3CCNCC3)C4)c2s1` (centres unmarked) [7-(5-chloro-2-(piperazine-1-carbonyl)-2,3-dihydrobenzofuran-7-yl)thieno[3,2-b]pyridine-2-carboxamide] returned an IC50 of 1 to 10 µM. Next, `CC[C@H](O)c1cc2nccc(-c3cc(Cl)cc4c3O[C@](C)(c3onc5c3CNCC5)C4)c2s1` [(S)-1-(7-((S)-5-chloro-2-methyl-2-(4,5,6,7-tetrahydroisoxazolo[4,3-c]pyridin-3-yl)-2,3-dihydrobenzofuran-7-yl)thieno[3,2-b]pyridin-2-yl)propan-1-ol]: 1 to 10 µM; `Clc1cc2c(c(-c3ccnc4ccsc34)c1)O[C@H](c1onc3c1CNCC3)C2` [(S)-3-(5-chloro-7-(thieno[3,2-b]pyridin-7-yl)-2,3-dihydrobenzofuran-2-yl)-4,5,6,7-tetrahydroisoxazolo[4,3-c]pyridine]: less than 1 µM; `CC(Cc1cc2nccc(-c3cc(Cl)cc4c3O[C@@H](C(=O)N3CCNCC3)C4)c2s1)NS(C)(=O)=O` (stereo partly drawn) [N-(1-(7-((R)-5-chloro-2-(piperazine-1-carbonyl)-2,3-dihydrobenzofuran-7-yl)thieno[3,2-b]pyridin-2-yl)propan-2-yl)methanesulfonamide]: less than 1 µM.

With `CCC(O)c1cc2ncnc(-c3cc(Cl)cc4c3O[C@@H](c3c5c(nn3C)CCNC5)C4)c2s1` (stereo partly drawn) [1-(4-((R)-5-chloro-2-(2-methyl-4,5,6,7-tetrahydro-2H-pyrazolo[4,3-c]pyridin-3-yl)-2,3-dihydrobenzofuran-7-yl)thieno[3,2-d]pyrimidin-6-yl)propan-1-ol], the IC50 was less than 1 µM. The value for `CCC(OC)c1cc2nccc(-c3cc(Cl)cc4c3O[C@@H](c3onc5c3CNCC5)C4)c2s1` (stereo partly drawn) [3-((2R)-5-chloro-7-(2-(1-methoxypropyl)thieno[3,2-b]pyridin-7-yl)-2,3-dihydrobenzofuran-2-yl)-4,5,6,7-tetrahydroisoxazolo[4,3-c]pyridine] was less than 1 µM; that for `COC(=O)c1ccc2c(-c3cc(Cl)cc4c3OC(C(=O)N3CCNCC3)C4)ccnc2c1` (centres unmarked) [methyl 4-(5-chloro-2-(piperazine-1-carbonyl)-2,3-dihydrobenzofuran-7-yl)quinoline-7-carboxylate] was 10 to 30 µM; that for `O=C([C@H]1Cc2cc(Cl)cc(-c3ccnc4sccc34)c2O1)N1CCNCC1` [(R)-(5-chloro-7-(thieno[2,3-b]pyridin-4-yl)-2,3-dihydrobenzofuran-2-yl)(piperazin-1-yl)methanone] was 1 to 10 µM.

For the molecule `O=C([C@H]1Cc2cc(Cl)cc(-c3ncnc4cc(CN5C(=O)CCC5=O)sc34)c2O1)N1CCNCC1` [(R)-1-((4-(5-chloro-2-(piperazine-1-carbonyl)-2,3-dihydrobenzofuran-7-yl)thieno[3,2-d]pyrimidin-6-yl)methyl)pyrrolidine-2,5-dione], the IC50 is less than 1 µM. Next, `NCc1cc2nccc(-c3cc(Cl)cc4c3O[C@@H](C(=O)N3CCNCC3)C4)c2s1` [(R)-(7-(2-(aminomethyl)thieno[3,2-b]pyridin-7-yl)-5-chloro-2,3-dihydrobenzofuran-2-yl)(piperazin-1-yl)methanone]: less than 1 µM; `CN[C@H]1CCCN(C(=O)[C@H]2Cc3cc(Cl)cc(-c4ccnc5cc(CO)sc45)c3O2)C1` [((R)-5-chloro-7-(2-(hydroxymethyl)thieno[3,2-b]pyridin-7-yl)-2,3-dihydrobenzofuran-2-yl)((S)-3-(methylamino)piperidin-1-yl)methanone]: less than 1 µM; `CCC(O)(CO)c1cc2nccc(-c3cc(Cl)cc4c3O[C@@H](C(=O)N3CCNCC3)C4)c2s1` (stereo partly drawn) [((2R)-5-chloro-7-(2-(1,2-dihydroxybutan-2-yl)thieno[3,2-b]pyridin-7-yl)-2,3-dihydrobenzofuran-2-yl)(piperazin-1-yl)methanone]: less than 1 µM. Regarding `O=C([C@H]1Cc2cc(Cl)cc(-c3ccnc4cc(CN5C(=O)CCCC5=O)sc34)c2O1)N1CCNCC1` [(R)-1-((7-(5-chloro-2-(piperazine-1-carbonyl)-2,3-dihydrobenzofuran-7-yl)thieno[3,2-b]pyridin-2-yl)methyl)piperidine-2,6-dione], the IC50 was less than 1 µM.

On to `O=C([C@H]1Cc2cc(Cl)cc(-c3ccnc4cc(CCO)sc34)c2O1)N1CCNCC1` [(R)-(5-chloro-7-(2-(2-hydroxyethyl)thieno[3,2-b]pyridin-7-yl)-2,3-dihydrobenzofuran-2-yl)(piperazin-1-yl)methanone], for which the IC50 is less than 1 µM. `CN(C)C1CCCN(C(=O)[C@H]2Cc3cc(Cl)cc(-c4ccnc5ccsc45)c3O2)C1` (stereo partly drawn) [((R)-5-chloro-7-(thieno[3,2-b]pyridin-7-yl)-2,3-dihydrobenzofuran-2-yl)(3-(dimethylamino)piperidin-1-yl)methanone] displayed a half-maximal inhibitory concentration (IC50) of less than 1 µM.

`O=C(C1Cc2cc(Cl)cc(-c3ccnc4c3ccn4Cc3ccccc3)c2O1)N1CCNCC1` (centres unmarked) [(7-(1-Benzyl-1H-pyrrolo[2,3-b]pyridin-4-yl)-5-chloro-2,3-dihydrobenzofuran-2-yl)(piperazin-1-yl)methanone] showed an IC50 of 10 to 30 µM. The value for `O=C([C@H]1Cc2cc(Cl)cc(-c3ccnc4ccsc34)c2O1)N1CCN2CCCC2C1` (stereo partly drawn) [((R)-5-chloro-7-(thieno[3,2-b]pyridin-7-yl)-2,3-dihydrobenzofuran-2-yl)(hexahydropyrrolo[1,2-a]pyrazin-2(1H)-yl)methanone] was 1 to 10 µM; that for `Cc1cc(-c2cc(Cl)cc3c2OC(C(=O)N2CCNCC2)C3)ccn1` (centres unmarked) [(5-Chloro-7-(2-methylpyridin-4-yl)-2,3-dihydrobenzofuran-2-yl)(piperazin-1-yl)methanone] was 10 to 30 µM.

As to `Clc1cc2c(c(-c3ccnc4[nH]ccc34)c1)OC(c1onc3c1CNCC3)C2` (centres unmarked) [3-(5-chloro-7-(1H-pyrrolo[2,3-b]pyridin-4-yl)-2,3-dihydrobenzofuran-2-yl)-4,5,6,7-tetrahydroisoxazolo[4,3-c]pyridine], the IC50 was less than 1 µM.

In turn, `O=C(C1Cc2cc(Cl)cc(-c3ccnc4[nH]ccc34)c2O1)N1CCC(O)(Cc2cccnc2)CC1` (centres unmarked) [(5-chloro-7-(1H-pyrrolo[2,3-b]pyridin-4-yl)-2,3-dihydrobenzofuran-2-yl)(4-hydroxy-4-(pyridin-3-ylmethyl)piperidin-1-yl)methanone] displayed an IC50 of 10 to 30 µM. For the molecule `O=C(C1Cc2cc(Cl)cc(-c3ccnc4[nH]ccc34)c2O1)N1CCC(O)(c2cccnc2)CC1` (centres unmarked) [(5-chloro-7-(1H-pyrrolo[2,3-b]pyridin-4-yl)-2,3-dihydrobenzofuran-2-yl)(4-hydroxy-4-(pyridin-3-yl)piperidin-1-yl)methanone], the IC50 was less than 1 µM. For `CS(=O)(=O)N1CCc2noc([C@H]3Cc4cc(Cl)cc(-c5ncnc6ccoc56)c4O3)c2C1` [(R)-3-(5-chloro-7-(furo[3,2-d]pyrimidin-4-yl)-2,3-dihydrobenzofuran-2-yl)-5-(methylsulfonyl)-4,5,6,7-tetrahydroisoxazolo[4,3-c]pyridine], the IC50 lay within 1 to 10 µM. As for `O=C([C@H]1Cc2cc(Cl)cc(-c3ncnc4cc(CN5C(=O)CCC5=O)oc34)c2O1)N1CCNCC1` [(R)-1-((4-(5-chloro-2-(piperazine-1-carbonyl)-2,3-dihydrobenzofuran-7-yl)furo[3,2-d]pyrimidin-6-yl)methyl)pyrrolidine-2,5-dione], the IC50 is less than 1 µM. The value for `O=C([C@H]1Cc2cc(Cl)cc(-c3ccnc4[nH]ccc34)c2O1)N1CCNCC1` [(R)-(5-chloro-7-(1H-pyrrolo[2,3-b]pyridin-4-yl)-2,3-dihydrobenzofuran-2-yl)(piperazin-1-yl)methanone] was less than 1 µM. The value for `O=C([C@H]1Cc2cc(Cl)cc(-c3ccnc4cc(CN5C(=O)CCNC5=O)sc34)c2O1)N1CCNCC1` [(R)-3-((7-(5-chloro-2-(piperazine-1-carbonyl)-2,3-dihydrobenzofuran-7-yl)thieno[3,2-b]pyridin-2-yl)methyl)dihydropyrimidine-2,4(1H,3H)-dione] was less than 1 µM.
